Measured values reported in US6436963B1 (priority 1998, dated 2002).

Columns and labels:
Type in all cases: in vivo
Puccinia recondita = experiment: Brown Rust (PUCCRT), protectant spray test on wheat seedlings; settings: wheat (cultivar Monon), sprayed to run off at 100 ppm, inoculated after 24 hours
Leptosphaeria nodorum = experiment: Glume Blotch of Wheat (LEPTNO), protectant spray test on wheat seedlings; settings: wheat (cultivar Monon), sprayed to run off at 100 ppm, inoculated after 24 hours
Erysiphe graminis = experiment: Powdery Mildew of Wheat (ERYSGT), protectant spray test on wheat seedlings; settings: wheat (cultivar Monon), sprayed to run off at 100 ppm, inoculated after 24 hours
Phytophthora infestans = settings: tomatoes (cultivar Rutgers), sprayed to run off at 100 ppm, inoculated after 24 hours

SMILES	PUCCRT control of plant disease (Puccinia recondita)	LEPTNO control of plant disease (Leptosphaeria nodorum)	ERYSGT control of plant disease (Erysiphe graminis)	PHYTIN control of plant disease (Phytophthora infestans)
CCC(=O)OC(c1ccc(F)cc1)c1cnc(OCc2ccccc2C(=NOC)C(=O)NC)c(Cl)c1 (racemic) [Example 48]	++ (++ = 75-100% control of plant disease)	++ (++ = 75-100% control of plant disease)	++ (++ = 75-100% control of plant disease)	++ (++ = 75-100% control of plant disease)
CNC(=O)C(=NOC)c1ccccc1COc1ncc(COCc2ccc(OC)cc2)cc1Cl [Example 25]	++ (++ = 75-100% control of plant disease)	++ (++ = 75-100% control of plant disease)	++ (++ = 75-100% control of plant disease)	+ (+ = 25-74% control of plant disease)
CNC(=O)C(=NOC)c1ccccc1COc1ncc(C(O)c2ccc(F)cc2)cc1Cl (racemic) [Example 7]	++ (++ = 75-100% control of plant disease)	++ (++ = 75-100% control of plant disease)	++ (++ = 75-100% control of plant disease)	++ (++ = 75-100% control of plant disease)
CNC(=O)C(=NOC)c1ccccc1COc1ncc(C(OC(C)=O)c2ccc(OC(F)(F)F)cc2)cc1Cl (stereo not shown) [Example 78]	++ (++ = 75-100% control of plant disease)	++ (++ = 75-100% control of plant disease)	++ (++ = 75-100% control of plant disease)	++ (++ = 75-100% control of plant disease)
CCOCC(=O)OC(c1ccccc1)c1cnc(OCc2ccccc2C(=NOC)C(=O)NC)c(Cl)c1 (racemic) [Example 63]	++ (++ = 75-100% control of plant disease)	++ (++ = 75-100% control of plant disease)	++ (++ = 75-100% control of plant disease)	++ (++ = 75-100% control of plant disease)
CNC(=O)C(=NOC)c1ccccc1COc1ncc(C(OC(C)=O)c2cccc(C)c2)cc1Cl (stereo not shown) [Example 112]	++ (++ = 75-100% control of plant disease)	++ (++ = 75-100% control of plant disease)	++ (++ = 75-100% control of plant disease)	++ (++ = 75-100% control of plant disease)
CC[Si](CC)(CC)OC(c1ccccc1)c1cnc(OCc2ccccc2C(=NOC)C(=O)NC)c(Cl)c1 (stereo not shown) [Example 67]	++ (++ = 75-100% control of plant disease)	++ (++ = 75-100% control of plant disease)	++ (++ = 75-100% control of plant disease)	= =
CNC(=O)C(=NOC)c1ccccc1COc1ncc(C(OC)c2ccc(OC(F)(F)F)cc2)cc1Cl (stereo not shown) [Example 79]	++ (++ = 75-100% control of plant disease)	++ (++ = 75-100% control of plant disease)	++ (++ = 75-100% control of plant disease)	− (− = 0-24% control of plant disease)
CNC(=O)C(=NOC)c1ccccc1COc1ncc(C(C)OCc2ccccc2OC)cc1Cl (stereo not shown) [Example 97]	++ (++ = 75-100% control of plant disease)	++ (++ = 75-100% control of plant disease)	++ (++ = 75-100% control of plant disease)	− (− = 0-24% control of plant disease)
CNC(=O)C(=NOC)c1ccccc1COc1ncc(C(OC(C)=O)c2ccccc2C(F)(F)F)cc1Cl (stereo not shown) [Example 88]	++ (++ = 75-100% control of plant disease)	++ (++ = 75-100% control of plant disease)	++ (++ = 75-100% control of plant disease)	++ (++ = 75-100% control of plant disease)
CNC(=O)C(=NOC)c1ccccc1COc1ncc(C(C)Oc2ccc(OC)cc2)cc1Cl (stereo not shown) [Example 89]	++ (++ = 75-100% control of plant disease)	++ (++ = 75-100% control of plant disease)	++ (++ = 75-100% control of plant disease)	++ (++ = 75-100% control of plant disease)
CNC(=O)C(=NOC)c1ccccc1COc1ncc(C(OC(C)=O)c2ccccn2)cc1Cl (stereo not shown) [Example 108]	++ (++ = 75-100% control of plant disease)	++ (++ = 75-100% control of plant disease)	++ (++ = 75-100% control of plant disease)	++ (++ = 75-100% control of plant disease)
CCOC(c1ccccc1)c1cnc(OCc2ccccc2C(=NOC)C(=O)NC)c(Cl)c1 (stereo not shown) [Example 69]	++ (++ = 75-100% control of plant disease)	++ (++ = 75-100% control of plant disease)	++ (++ = 75-100% control of plant disease)	− (− = 0-24% control of plant disease)
CNC(=O)C(=NOC)c1ccccc1COc1ncc(C(O)c2ccc(C(F)(F)F)cc2)cc1Cl (stereo not shown) [Example 102]	++ (++ = 75-100% control of plant disease)	++ (++ = 75-100% control of plant disease)	++ (++ = 75-100% control of plant disease)	++ (++ = 75-100% control of plant disease)
CCC(O)(c1ccccc1)c1cnc(OCc2ccccc2C(=NOC)C(=O)NC)c(Cl)c1 (racemic) [Example 42]	++ (++ = 75-100% control of plant disease)	++ (++ = 75-100% control of plant disease)	++ (++ = 75-100% control of plant disease)	++ (++ = 75-100% control of plant disease)
CNC(=O)C(=NOC)c1ccccc1COc1ncc(C2(c3ccccc3)CO2)cc1Cl (stereo not shown) [Example 124]	++ (++ = 75-100% control of plant disease)	++ (++ = 75-100% control of plant disease)	++ (++ = 75-100% control of plant disease)	++ (++ = 75-100% control of plant disease)
CNC(=O)C(=NOC)c1ccccc1COc1ncc(C2(c3ccccc3)COC(=S)O2)cc1Cl (stereo not shown) [Example 125]	++ (++ = 75-100% control of plant disease)	++ (++ = 75-100% control of plant disease)	++ (++ = 75-100% control of plant disease)	++ (++ = 75-100% control of plant disease)
CCC(O)c1cnc(OCc2ccccc2C(=NOC)C(=O)NC)c(Cl)c1 (stereo not shown) [Example 90]	++ (++ = 75-100% control of plant disease)	+ (+ = 25-74% control of plant disease)	++ (++ = 75-100% control of plant disease)	++ (++ = 75-100% control of plant disease)
CNC(=O)C(=NOC)c1ccccc1COc1ncc(C(OC(C)=O)c2ccccc2C)cc1Cl (racemic) [Example 61]	++ (++ = 75-100% control of plant disease)	++ (++ = 75-100% control of plant disease)	++ (++ = 75-100% control of plant disease)	++ (++ = 75-100% control of plant disease)
CNC(=O)C(=NOC)c1ccccc1COc1ncc(C(O)C2CCCCC2)cc1Cl (stereo not shown) [Example 87]	++ (++ = 75-100% control of plant disease)	++ (++ = 75-100% control of plant disease)	++ (++ = 75-100% control of plant disease)	++ (++ = 75-100% control of plant disease)
CNC(=O)C(=NOC)c1ccccc1COc1ncc(C(O)(CO)c2ccccc2)cc1Cl (stereo not shown) [Example 86]	++ (++ = 75-100% control of plant disease)	− (− = 0-24% control of plant disease)	− (− = 0-24% control of plant disease)	++ (++ = 75-100% control of plant disease)
CCCC(=O)OC(c1ccc(F)cc1)c1cnc(OCc2ccccc2C(=NOC)C(=O)NC)c(Cl)c1 (racemic) [Example 50]	++ (++ = 75-100% control of plant disease)	++ (++ = 75-100% control of plant disease)	++ (++ = 75-100% control of plant disease)	++ (++ = 75-100% control of plant disease)
